Reference: ChEMBL document CHEMBL1201862, “PubChem BioAssay data set” (2004)
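Cultured in 96-well plates, cells were exposed to test compound for 48 hours across five concentrations. Here, GI50 denotes the concentration required for 50% inhibition of growth.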 Activity calls are given as the source filed them. Rule as the data show it: active = GI50 up to about 1.1 µM and inactive = higher.

Assays:
Experiment in all cases: NCI tumour cell line growth inhibition, 48 h
[1] = test system: 786-0
[2] = test system: HCT-15
[3] = test system: HL-60
[4] = test system: K562
[5] = test system: Malme-3M
[6] = test system: NCI-H522
[7] = test system: OVCAR-4
[8] = test system: SF-295
[9] = test system: SF-539
[10] = test system: SK-MEL-5
[11] = test system: SN12C
[12] = test system: TK-10
[13] = test system: U-251
[14] = test system: CAKI-1

Compound	GI50 [1]	GI50 [2] [µM]	GI50 [3]	GI50 [4]	GI50 [5]	GI50 [6]	GI50 [7]	GI50 [8]	GI50 [9]	GI50 [10]	GI50 [11]	GI50 [12]	GI50 [13]	GI50 [14]
Cc1nc2c(n1CC(C)(C)C)C(=O)c1ccccc1C2=O	> 100 µM (inactive)	> 100	36.1 µM (inactive)	56 µM (inactive)	76.9 µM (inactive)	92.7 µM (inactive)	> 100 µM (inactive)	> 100 µM (inactive)	> 100 µM (inactive)	43.1 µM (inactive)	> 100 µM (inactive)	> 100 µM (inactive)	> 100 µM (inactive)	
Cc1nc2nnc(C)n2c2c1C(=O)Nc1ccccc1N2	> 100 µM (inactive)		> 100 µM (inactive)	> 100 µM (inactive)	> 100 µM (inactive)	> 100 µM (inactive)		> 100 µM (inactive)	> 100 µM (inactive)		> 100 µM (inactive)	> 100 µM (inactive)	> 100 µM (inactive)	
CCOC(=O)[C@H]1Nc2ccc(OC)cc2C2c3ccccc3CC21 (stereo partly specified)	> 100 µM (inactive)	> 100		> 100 µM (inactive)	> 100 µM (inactive)	> 100 µM (inactive)	> 100 µM (inactive)	> 100 µM (inactive)	> 100 µM (inactive)	> 100 µM (inactive)	> 100 µM (inactive)	> 100 µM (inactive)	> 100 µM (inactive)	> 100 µM (inactive)
CS/C(=N/C(=O)c1ccccc1Cl)SCCS/C(=N\C(=O)c1ccccc1Cl)SC	> 100 µM (inactive)	> 100	> 100 µM (inactive)	> 100 µM (inactive)	> 100 µM (inactive)	> 100 µM (inactive)	> 100 µM (inactive)	> 100 µM (inactive)	> 100 µM (inactive)	> 100 µM (inactive)	> 100 µM (inactive)	> 100 µM (inactive)	> 100 µM (inactive)	> 100 µM (inactive)
OCCN(CCO)c1ncnc2c1sc(=S)n2-c1ccccc1	> 100 µM (inactive)	> 100	> 100 µM (inactive)	> 100 µM (inactive)	> 100 µM (inactive)	> 100 µM (inactive)	> 100 µM (inactive)	> 100 µM (inactive)	> 100 µM (inactive)	> 100 µM (inactive)	> 100 µM (inactive)	> 100 µM (inactive)	> 100 µM (inactive)	> 100 µM (inactive)
CC1=NN(C(=O)c2ccncc2)C(=O)C1/N=N/c1ccc(F)cc1 (stereo unspecified)	> 100 µM (inactive)	> 100	> 100 µM (inactive)	> 100 µM (inactive)	> 100 µM (inactive)	> 100 µM (inactive)	> 100 µM (inactive)	> 100 µM (inactive)	59.2 µM (inactive)	> 100 µM (inactive)	> 100 µM (inactive)	> 100 µM (inactive)		> 100 µM (inactive)
C/C(=N\NC(=N)N)C(CN1CCOCC1)C(c1ccccc1)c1c(O)c2ccccc2oc1=O (stereo unspecified)	> 100 µM (inactive)	> 100	49.1 µM (inactive)	> 100 µM (inactive)	25.9 µM (inactive)	> 100 µM (inactive)	61.9 µM (inactive)	> 100 µM (inactive)	77.6 µM (inactive)	> 100 µM (inactive)	> 100 µM (inactive)	> 100 µM (inactive)	> 100 µM (inactive)	> 100 µM (inactive)
CCOC(=O)C12CCSC1C1(C#N)C(C#N)=CC2(N=P(c2ccccc2)(c2ccccc2)c2ccccc2)n2c(=O)n(-c3ccccc3)c(=O)n21 (stereo unspecified)	47.8 µM (inactive)	34.8	26.1 µM (inactive)	33.9 µM (inactive)	44.6 µM (inactive)	29.5 µM (inactive)	21.9 µM (inactive)	36.6 µM (inactive)	73.6 µM (inactive)	25.2 µM (inactive)	62.2 µM (inactive)	> 100 µM (inactive)	42.4 µM (inactive)	28.6 µM (inactive)
[N-]=[N+]=NC12CC3C4CC5CC3C(C1)C(C5)C4C2	> 100 µM (inactive)			> 100 µM (inactive)	> 100 µM (inactive)	> 100 µM (inactive)	> 100 µM (inactive)	> 100 µM (inactive)	> 100 µM (inactive)	> 100 µM (inactive)	> 100 µM (inactive)	> 100 µM (inactive)	> 100 µM (inactive)	> 100 µM (inactive)
CCN(CCCl)CCCCCNc1c2ccccc2nc2ccc(OC)cc12	0.345 µM (active)	1.3	0.0411 µM (active)	0.149 µM (active)	2.04 µM (inactive)	0.628 µM (active)	1.01 µM (active)	1.47 µM (inactive)	1.04 µM (active)	1.1 µM (active)	0.232 µM (active)	7.66 µM (inactive)	0.603 µM (active)	2.84 µM (inactive)
